Data: ChEMBL document CHEMBL5291721, “A preclinical secondary pharmacology resource illuminates target-adverse drug reaction associations of marketed drugs” (Nat Commun, 2023)

How the values were obtained:
[1] = target: 5-hydroxytryptamine receptor 2B (Homo sapiens, UniProt P41595); assay type: functional, cell-based
[2] = target: Glutamate receptor ionotropic, NMDA 1 (Rattus norvegicus, UniProt P35439)
[3] = target: Gamma-aminobutyric acid receptor subunit alpha-1 (Rattus norvegicus, UniProt P62813)
Vasopressin V2 receptor = Vasopressin V2 receptor (Homo sapiens, UniProt P30518)
[4] = target: Voltage-dependent L-type calcium channel subunit alpha-1C (Rattus norvegicus, UniProt P22002); assay type: functional
Progesterone receptor = target: T1, Progesterone receptor (Homo sapiens, UniProt P06401); assay type: functional
T1 sequence (P06401 whole entry): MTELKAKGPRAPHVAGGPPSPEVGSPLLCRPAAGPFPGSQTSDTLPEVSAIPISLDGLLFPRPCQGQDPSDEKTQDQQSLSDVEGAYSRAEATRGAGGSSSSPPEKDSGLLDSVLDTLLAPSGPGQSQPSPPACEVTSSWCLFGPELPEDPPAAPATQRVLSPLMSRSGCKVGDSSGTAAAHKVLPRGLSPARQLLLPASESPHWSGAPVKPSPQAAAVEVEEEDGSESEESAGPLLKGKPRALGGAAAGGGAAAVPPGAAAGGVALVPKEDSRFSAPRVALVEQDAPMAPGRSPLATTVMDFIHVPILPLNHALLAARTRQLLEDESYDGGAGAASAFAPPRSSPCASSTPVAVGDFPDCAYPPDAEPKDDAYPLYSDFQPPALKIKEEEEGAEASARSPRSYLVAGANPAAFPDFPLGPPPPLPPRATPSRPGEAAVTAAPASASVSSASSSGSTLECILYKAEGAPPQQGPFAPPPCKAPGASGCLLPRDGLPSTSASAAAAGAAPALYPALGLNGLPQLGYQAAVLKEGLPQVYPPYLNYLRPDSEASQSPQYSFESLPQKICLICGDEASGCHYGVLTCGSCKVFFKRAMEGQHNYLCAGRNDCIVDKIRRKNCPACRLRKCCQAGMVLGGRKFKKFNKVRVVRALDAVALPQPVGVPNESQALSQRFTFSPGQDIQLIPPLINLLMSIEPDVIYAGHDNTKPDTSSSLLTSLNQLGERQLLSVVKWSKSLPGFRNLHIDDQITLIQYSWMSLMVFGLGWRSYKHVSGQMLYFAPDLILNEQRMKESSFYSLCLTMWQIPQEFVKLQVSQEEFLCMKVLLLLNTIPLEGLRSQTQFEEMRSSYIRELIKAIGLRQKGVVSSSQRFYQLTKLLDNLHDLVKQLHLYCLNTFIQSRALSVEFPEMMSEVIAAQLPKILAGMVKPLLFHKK

Histamine H1 receptor = Histamine H1 receptor (Homo sapiens, UniProt P35367)
[5] = target: T2, Amine oxidase [flavin-containing] A (Homo sapiens, UniProt P21397); assay type: functional
T2 sequence (P21397 whole entry): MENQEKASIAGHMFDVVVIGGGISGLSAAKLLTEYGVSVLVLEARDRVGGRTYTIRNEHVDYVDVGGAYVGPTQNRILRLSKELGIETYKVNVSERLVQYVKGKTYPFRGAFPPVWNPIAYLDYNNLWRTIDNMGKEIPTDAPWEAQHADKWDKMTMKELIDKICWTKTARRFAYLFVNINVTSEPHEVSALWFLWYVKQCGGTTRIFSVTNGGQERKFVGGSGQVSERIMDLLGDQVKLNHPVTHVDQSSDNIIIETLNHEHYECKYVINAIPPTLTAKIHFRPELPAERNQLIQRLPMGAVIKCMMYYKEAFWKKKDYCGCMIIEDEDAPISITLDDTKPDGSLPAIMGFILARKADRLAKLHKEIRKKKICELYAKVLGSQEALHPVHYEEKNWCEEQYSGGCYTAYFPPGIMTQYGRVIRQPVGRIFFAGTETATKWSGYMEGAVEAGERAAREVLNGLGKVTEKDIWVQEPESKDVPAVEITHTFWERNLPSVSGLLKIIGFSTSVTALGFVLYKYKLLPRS

[6] = target: 3',5'-cyclic-AMP phosphodiesterase 4A (Homo sapiens, UniProt P27815); assay type: functional
[7] = target: T3, Alpha-2A adrenergic receptor (Homo sapiens, UniProt P08913)
T3 sequence (P08913 whole entry): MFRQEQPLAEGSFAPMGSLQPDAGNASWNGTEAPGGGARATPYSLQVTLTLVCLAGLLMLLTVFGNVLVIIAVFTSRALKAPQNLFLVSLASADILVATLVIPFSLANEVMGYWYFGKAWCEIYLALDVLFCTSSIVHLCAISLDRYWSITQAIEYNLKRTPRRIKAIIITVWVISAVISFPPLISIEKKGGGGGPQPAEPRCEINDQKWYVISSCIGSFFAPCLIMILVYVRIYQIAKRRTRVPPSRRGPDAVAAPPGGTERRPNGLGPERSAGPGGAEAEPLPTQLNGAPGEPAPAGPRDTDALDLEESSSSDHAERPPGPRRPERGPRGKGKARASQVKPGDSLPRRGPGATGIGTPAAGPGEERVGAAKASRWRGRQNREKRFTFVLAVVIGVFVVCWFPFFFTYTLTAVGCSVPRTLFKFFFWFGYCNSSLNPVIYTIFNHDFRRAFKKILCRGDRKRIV

Histamine H3 receptor = Histamine H3 receptor (Homo sapiens, UniProt Q9Y5N1)
[8] = target: Sodium-dependent noradrenaline transporter (Homo sapiens, UniProt P23975)
Note: assay procedure not described here.

Histamine H3 receptor, sequence (Q9Y5N1 whole entry): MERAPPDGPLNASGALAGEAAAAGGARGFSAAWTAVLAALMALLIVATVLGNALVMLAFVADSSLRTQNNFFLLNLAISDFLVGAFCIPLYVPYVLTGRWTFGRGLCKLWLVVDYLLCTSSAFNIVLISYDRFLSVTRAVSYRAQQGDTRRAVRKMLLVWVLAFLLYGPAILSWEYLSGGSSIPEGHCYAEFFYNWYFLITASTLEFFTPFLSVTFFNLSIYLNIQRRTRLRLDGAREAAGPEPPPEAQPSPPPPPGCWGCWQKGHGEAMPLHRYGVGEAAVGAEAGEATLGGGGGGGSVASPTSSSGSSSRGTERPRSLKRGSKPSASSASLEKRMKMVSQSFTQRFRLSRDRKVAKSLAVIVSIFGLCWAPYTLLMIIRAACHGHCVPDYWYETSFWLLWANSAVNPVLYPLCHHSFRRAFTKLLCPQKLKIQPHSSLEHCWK
3',5'-cyclic-AMP phosphodiesterase 4A, sequence (P27815 whole entry): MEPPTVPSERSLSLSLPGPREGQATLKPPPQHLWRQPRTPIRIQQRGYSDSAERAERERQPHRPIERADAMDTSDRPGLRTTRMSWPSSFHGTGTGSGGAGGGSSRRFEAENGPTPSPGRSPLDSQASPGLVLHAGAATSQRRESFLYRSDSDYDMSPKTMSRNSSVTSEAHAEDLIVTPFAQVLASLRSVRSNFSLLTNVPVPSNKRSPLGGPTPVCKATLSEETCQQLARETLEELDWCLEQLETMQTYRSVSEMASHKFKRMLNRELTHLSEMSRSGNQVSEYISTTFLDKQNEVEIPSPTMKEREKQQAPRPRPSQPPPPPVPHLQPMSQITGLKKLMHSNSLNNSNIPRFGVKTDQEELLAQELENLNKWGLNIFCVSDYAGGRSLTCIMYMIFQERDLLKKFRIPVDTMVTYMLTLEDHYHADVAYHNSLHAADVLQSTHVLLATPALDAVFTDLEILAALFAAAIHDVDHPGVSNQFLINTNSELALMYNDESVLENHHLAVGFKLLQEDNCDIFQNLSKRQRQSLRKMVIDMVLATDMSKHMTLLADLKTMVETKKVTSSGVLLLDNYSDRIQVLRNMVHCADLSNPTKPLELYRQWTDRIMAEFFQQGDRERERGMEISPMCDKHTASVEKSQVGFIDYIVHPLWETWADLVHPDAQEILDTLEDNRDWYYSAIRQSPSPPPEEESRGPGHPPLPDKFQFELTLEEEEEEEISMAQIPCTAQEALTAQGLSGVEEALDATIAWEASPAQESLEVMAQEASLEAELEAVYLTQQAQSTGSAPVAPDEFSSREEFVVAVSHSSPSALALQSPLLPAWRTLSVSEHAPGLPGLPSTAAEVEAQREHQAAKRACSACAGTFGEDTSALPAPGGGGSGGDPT
Sodium-dependent noradrenaline transporter, sequence (P23975 whole entry): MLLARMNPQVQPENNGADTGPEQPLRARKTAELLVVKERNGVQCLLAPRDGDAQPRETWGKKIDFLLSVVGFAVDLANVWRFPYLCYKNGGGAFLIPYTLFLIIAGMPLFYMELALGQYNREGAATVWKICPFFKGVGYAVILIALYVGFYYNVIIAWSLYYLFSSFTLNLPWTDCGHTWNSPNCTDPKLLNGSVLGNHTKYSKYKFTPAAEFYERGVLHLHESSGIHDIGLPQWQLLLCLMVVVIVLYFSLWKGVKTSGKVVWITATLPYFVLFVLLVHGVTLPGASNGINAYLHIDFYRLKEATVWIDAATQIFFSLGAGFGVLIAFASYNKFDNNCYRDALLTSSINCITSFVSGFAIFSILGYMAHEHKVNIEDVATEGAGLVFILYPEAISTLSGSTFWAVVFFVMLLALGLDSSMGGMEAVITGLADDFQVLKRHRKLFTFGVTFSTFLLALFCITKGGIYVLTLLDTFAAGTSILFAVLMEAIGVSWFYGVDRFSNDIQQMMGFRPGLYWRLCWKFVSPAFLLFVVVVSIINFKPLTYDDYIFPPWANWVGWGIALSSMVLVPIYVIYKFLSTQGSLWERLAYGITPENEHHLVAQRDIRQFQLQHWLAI
Vasopressin V2 receptor, sequence (P30518 whole entry): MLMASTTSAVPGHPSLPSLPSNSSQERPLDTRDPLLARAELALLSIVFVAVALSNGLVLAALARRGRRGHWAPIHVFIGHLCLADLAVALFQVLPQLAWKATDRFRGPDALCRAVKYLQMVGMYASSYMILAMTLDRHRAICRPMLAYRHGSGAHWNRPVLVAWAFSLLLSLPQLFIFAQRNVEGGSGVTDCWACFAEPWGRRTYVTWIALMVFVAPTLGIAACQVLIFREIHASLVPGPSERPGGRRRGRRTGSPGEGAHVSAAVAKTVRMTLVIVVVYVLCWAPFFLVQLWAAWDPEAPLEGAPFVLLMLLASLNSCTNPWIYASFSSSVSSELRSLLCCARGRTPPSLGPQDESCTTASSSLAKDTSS
Voltage-dependent L-type calcium channel subunit alpha-1C, sequence (P22002 whole entry): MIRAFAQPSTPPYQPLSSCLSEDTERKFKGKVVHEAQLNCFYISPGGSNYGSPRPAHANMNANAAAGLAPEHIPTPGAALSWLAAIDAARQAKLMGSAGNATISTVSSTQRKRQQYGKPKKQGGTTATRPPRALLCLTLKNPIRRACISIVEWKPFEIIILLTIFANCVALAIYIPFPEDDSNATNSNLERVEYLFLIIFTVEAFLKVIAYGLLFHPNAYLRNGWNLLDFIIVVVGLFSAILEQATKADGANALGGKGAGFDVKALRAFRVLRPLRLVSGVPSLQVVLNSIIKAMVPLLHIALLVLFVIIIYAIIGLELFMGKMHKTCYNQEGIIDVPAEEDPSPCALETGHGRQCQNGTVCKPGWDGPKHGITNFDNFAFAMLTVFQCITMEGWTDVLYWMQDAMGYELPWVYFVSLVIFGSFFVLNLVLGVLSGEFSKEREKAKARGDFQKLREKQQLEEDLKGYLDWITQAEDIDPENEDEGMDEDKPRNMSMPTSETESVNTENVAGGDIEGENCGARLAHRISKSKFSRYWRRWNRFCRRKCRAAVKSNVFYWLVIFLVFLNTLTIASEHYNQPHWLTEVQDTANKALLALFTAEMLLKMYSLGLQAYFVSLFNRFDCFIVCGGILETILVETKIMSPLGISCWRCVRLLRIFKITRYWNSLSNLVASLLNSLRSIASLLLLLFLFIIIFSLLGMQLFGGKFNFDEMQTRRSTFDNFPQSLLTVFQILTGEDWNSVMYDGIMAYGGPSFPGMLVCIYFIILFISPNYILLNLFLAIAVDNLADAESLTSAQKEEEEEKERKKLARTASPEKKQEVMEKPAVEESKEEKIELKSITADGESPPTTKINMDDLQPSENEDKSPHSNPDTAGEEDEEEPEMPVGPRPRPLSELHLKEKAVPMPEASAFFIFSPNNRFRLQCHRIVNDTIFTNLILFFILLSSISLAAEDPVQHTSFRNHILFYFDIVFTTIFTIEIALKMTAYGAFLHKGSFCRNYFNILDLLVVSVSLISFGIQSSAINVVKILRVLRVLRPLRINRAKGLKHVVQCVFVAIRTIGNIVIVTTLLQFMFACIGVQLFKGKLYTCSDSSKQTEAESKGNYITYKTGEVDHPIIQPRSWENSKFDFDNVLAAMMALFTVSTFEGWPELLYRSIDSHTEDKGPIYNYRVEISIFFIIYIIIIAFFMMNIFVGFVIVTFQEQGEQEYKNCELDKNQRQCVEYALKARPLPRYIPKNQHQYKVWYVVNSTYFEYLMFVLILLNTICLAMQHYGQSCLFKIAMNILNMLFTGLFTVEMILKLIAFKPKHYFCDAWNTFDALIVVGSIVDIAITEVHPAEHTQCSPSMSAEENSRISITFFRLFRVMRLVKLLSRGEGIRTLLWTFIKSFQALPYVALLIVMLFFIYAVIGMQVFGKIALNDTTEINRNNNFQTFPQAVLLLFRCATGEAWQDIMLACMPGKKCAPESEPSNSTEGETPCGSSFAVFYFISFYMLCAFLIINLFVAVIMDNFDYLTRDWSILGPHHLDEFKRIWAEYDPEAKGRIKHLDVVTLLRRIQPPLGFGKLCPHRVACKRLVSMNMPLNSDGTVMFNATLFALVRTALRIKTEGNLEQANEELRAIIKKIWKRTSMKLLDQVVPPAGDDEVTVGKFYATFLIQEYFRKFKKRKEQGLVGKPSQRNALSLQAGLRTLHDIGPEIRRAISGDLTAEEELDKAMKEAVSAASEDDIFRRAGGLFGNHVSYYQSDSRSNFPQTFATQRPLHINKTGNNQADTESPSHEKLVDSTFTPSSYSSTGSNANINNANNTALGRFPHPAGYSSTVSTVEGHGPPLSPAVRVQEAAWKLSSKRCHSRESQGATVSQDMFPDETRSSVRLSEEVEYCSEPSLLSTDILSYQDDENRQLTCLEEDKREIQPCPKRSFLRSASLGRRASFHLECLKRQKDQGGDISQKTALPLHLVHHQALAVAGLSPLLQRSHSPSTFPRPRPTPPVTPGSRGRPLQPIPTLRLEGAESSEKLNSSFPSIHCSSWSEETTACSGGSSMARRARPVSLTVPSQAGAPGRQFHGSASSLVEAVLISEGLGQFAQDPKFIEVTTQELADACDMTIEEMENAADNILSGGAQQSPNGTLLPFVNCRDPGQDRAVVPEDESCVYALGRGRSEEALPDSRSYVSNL
Histamine H1 receptor, sequence (P35367 whole entry): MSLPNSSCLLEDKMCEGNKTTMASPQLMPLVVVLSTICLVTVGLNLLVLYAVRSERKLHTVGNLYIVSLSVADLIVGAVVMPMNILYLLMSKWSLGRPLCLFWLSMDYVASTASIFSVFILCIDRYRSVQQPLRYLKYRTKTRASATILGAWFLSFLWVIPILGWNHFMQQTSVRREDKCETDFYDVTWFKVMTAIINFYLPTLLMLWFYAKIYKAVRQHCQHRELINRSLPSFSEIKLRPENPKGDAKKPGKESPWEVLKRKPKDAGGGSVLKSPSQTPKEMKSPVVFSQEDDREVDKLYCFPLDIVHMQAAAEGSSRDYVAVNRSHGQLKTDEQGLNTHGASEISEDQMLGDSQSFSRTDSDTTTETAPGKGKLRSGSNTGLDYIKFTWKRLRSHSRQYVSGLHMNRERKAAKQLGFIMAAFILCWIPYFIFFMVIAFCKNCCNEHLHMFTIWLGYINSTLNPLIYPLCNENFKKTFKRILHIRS

| SMILES | AC50 [1] [µM] | AC50 [2] [µM] | AC50 [3] [µM] | AC50 (Vasopressin V2 receptor) [µM] | AC50 [4] [µM] | AC50 (Progesterone receptor) [µM] | AC50 (Histamine H1 receptor) [µM] | AC50 [5] [µM] | AC50 [6] [µM] | AC50 [7] [µM] | AC50 (Histamine H3 receptor) [µM] | AC50 [8] [µM] |
| --- | --- | --- | --- | --- | --- | --- | --- | --- | --- | --- | --- | --- |
| COc1cc2nc(N(C)CCCNC(=O)C3CCCO3)nc(N)c2cc1OC (stereo unspecified) [ALFUZOSIN] | > 30 | > 30 | > 30 | > 30 | > 30 | > 30 | > 30 | – | – | – | – | – |
| COC(c1ccccc1)(c1ccccc1)[C@H](Oc1nc(C)cc(C)n1)C(=O)O [AMBRISENTAN] | – | – | – | – | – | – | – | > 30 | > 30 | > 30 | > 30 | > 30 |
| CCc1oc2ccccc2c1C(=O)c1cc(I)c(O)c(I)c1 [BENZIODARONE] | – | – | – | – | – | – | – | > 30 | 2.37 | 29.9 | 28.3 | 12.6 |
| CN(C)CCn1nnnc1SCC1=C(C(=O)O)N2C(=O)[C@@H](NC(=O)Cc3csc(N)n3)[C@H]2SC1 [CEFOTIAM] | – | – | – | – | – | – | – | > 30 | > 30 | > 30 | > 30 | > 30 |
| COCc1c(C(C)C)nc(C(C)C)c(/C=C/[C@@H](O)C[C@@H](O)CC(=O)O)c1-c1ccc(F)cc1 [CERIVASTATIN] | – | – | – | – | – | – | – | > 30 | 21.5 | > 30 | > 30 | > 30 |
| Oc1c(Cl)cc(Cl)c2cccnc12 [CHLOROXINE] | – | – | – | – | – | – | – | > 30 | > 30 | > 30 | > 30 | 5.19 |
| C[N+](C)(C)CCO [CHOLINE] | – | – | – | – | – | – | – | > 30 | > 30 | > 30 | > 30 | > 30 |
| CN(C)[C@@H](c1cccc(O)c1)[C@H]1CCCC[C@H]1O [CIRAMADOL] | – | – | – | – | – | – | – | > 30 | > 30 | > 30 | > 30 | > 30 |
| CN(C)CC(c1ccc(O)cc1)C1(O)CCCCC1 (stereo unspecified) [DESVENLAFAXINE] | – | – | – | – | – | – | – | > 30 | > 30 | > 30 | > 30 | – |
| CN(C)CCN1C(=O)c2ccccc2N(C)c2ccccc21 [DIBENZEPIN] | – | – | – | – | – | – | – | > 30 | > 30 | 9.47 | > 30 | 0.212 |
| N[C@H](C(=O)O)[C@H](O)c1ccc(O)c(O)c1 [DROXIDOPA] | – | – | – | – | – | – | – | > 30 | > 30 | > 30 | > 30 | > 30 |
| C[C@]12CC[C@@H]3c4ccc(O)cc4CC[C@H]3[C@@H]1C[C@@H](O)[C@@H]2O [ESTRIOL] | – | – | – | – | – | – | – | > 30 | > 30 | > 30 | > 30 | > 30 |
| Cc1cc(C#N)cc(C)c1Oc1nc(Nc2ccc(C#N)cc2)nc(N)c1Br [ETRAVIRINE] | – | – | – | – | – | – | – | > 30 | > 30 | 20 | > 30 | 5.88 |
| O=C(O)c1cc(O)ccc1O [GENTISIC ACID] | – | – | – | – | – | – | – | > 30 | > 30 | > 30 | > 30 | > 30 |
| CCC1=C(C)CN(C(=O)NCCc2ccc(S(=O)(=O)NC(=O)N[C@H]3CC[C@H](C)CC3)cc2)C1=O [GLIMEPIRIDE] | – | – | – | – | – | – | – | > 30 | > 30 | > 30 | > 30 | > 30 |
| C[N+]1(C)CCC(OC(=O)C(O)(c2ccccc2)C2CCCC2)C1 (stereo unspecified) [GLYCOPYRRONIUM BROMIDE] | – | – | – | > 30 | – | > 10 | – | – | > 30 | – | – | – |
| CC(C)Nc1ncccn1 [ISAXONINE] | – | – | – | – | – | – | – | > 30 | > 30 | > 30 | > 30 | > 30 |
| N[C@@H](C(=O)N[C@@H]1C(=O)N2C(C(=O)O)=C(Cl)CC[C@H]12)c1ccccc1 [LORACARBEF ANHYDROUS] | – | – | – | – | – | – | – | > 30 | > 30 | > 30 | > 30 | > 30 |
| OCCN1C[C@H](O)[C@@H](O)[C@H](O)[C@H]1CO [MIGLITOL] | – | – | – | – | – | – | – | > 30 | > 30 | > 30 | > 30 | > 30 |
| CC(=O)N[C@@H]1[C@@H](O)[C@H](O)[C@@H](CO)O[C@H]1O [N-ACETYLGLUCOSAMINE] | – | – | – | – | – | – | – | > 30 | > 30 | > 30 | > 30 | > 30 |
| O=C(CCNNC(=O)c1ccncc1)NCc1ccccc1 [NIALAMIDE] | – | – | – | – | – | – | – | > 30 | > 30 | > 30 | > 30 | > 30 |
| CC[N+]1(C)[C@@H]2CC(OC(=O)[C@H](CO)c3ccccc3)C[C@H]1[C@@H]1O[C@@H]12 (stereo partly specified) [OXITROPIUM] | – | – | – | – | – | – | – | > 30 | > 30 | > 30 | > 30 | > 30 |
| CC(C)(C)NC[C@H](O)COc1ccccc1C1CCCC1 [PENBUTOLOL] | – | – | – | – | – | – | – | > 30 | > 10 | 0.966 | > 30 | 13.4 |
| CC(C)(S)[C@@H](N)C(=O)O [PENICILLAMINE] | – | – | – | – | – | – | – | > 30 | > 30 | > 30 | > 30 | > 30 |
| CN(C)S(=O)(=O)c1ccc2c(c1)N(CCCN1CCC(CCO)CC1)c1ccccc1S2 [PIPOTIAZINE] | – | – | – | – | – | – | – | > 30 | > 30 | 0.313 | > 30 | 12 |
| COc1cc(NC(C)CCCN)c2ncccc2c1 (stereo unspecified) [PRIMAQUINE] | – | – | – | > 30 | – | 20 | – | – | 16.2 | – | – | – |
| C=C[C@H]1C[N@@]2CC[C@H]1C[C@H]2[C@H](O)c1ccnc2ccc(OC)cc12 [QUININE] | – | – | – | – | – | – | – | > 30 | > 30 | 5.45 | > 30 | > 30 |
| CCC(=O)NCC[C@@H]1CCc2ccc3c(c21)CCO3 [RAMELTEON] | – | – | – | – | – | – | – | > 30 | > 30 | > 30 | > 30 | > 30 |
| CCOC(=O)[C@H](CCc1ccccc1)N[C@@H](C)C(=O)N1[C@H](C(=O)O)C[C@H]2CCCC[C@@H]21 [TRANDOLAPRIL] | – | – | – | – | – | – | – | > 30 | > 30 | > 30 | > 30 | > 30 |
| CCCCCCOc1nsnc1C1=CCCN(C)C1 [XANOMELINE] | – | – | – | – | – | – | – | – | 28.5 | 1.39 | 3.6 | 2.74 |
